Assay results as given in ChEMBL document CHEMBL1201862, “PubChem BioAssay data set” (2004).
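Grown in 96-well plates, cells were treated for 48 hours with each compound at five concentrations. Insufficient inhibition: endpoint recorded as highest concentration tested. At the GI50, growth is halved.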 Activity calls are given as the source filed them. Rule as the data show it: active = GI50 up to about 1.1 µM and inactive = higher.

Key:
Assay in all cases: inhibition of tumour cell growth, NCI panel, 48 h
[1] = system: OVCAR-8
[2] = system: CCRF-CEM
[3] = system: 786-0
[4] = system: A549
[5] = system: ACHN
[6] = system: DMS-114
[7] = system: OVCAR-3
[8] = system: SF-295
[9] = system: OVCAR-5
[10] = system: UACC-257
[11] = system: SW-620
[12] = system: KM-20L2
[13] = system: SK-MEL-2
[14] = system: HCT-116
[15] = system: HCC 2998
[16] = system: DMS-273
[17] = system: Malme-3M
[18] = system: LOX IMVI
[19] = system: SF-268
[20] = system: NCI-H23
[21] = system: SNB-19
[22] = system: XF498
[23] = system: IGROV-1
[24] = system: HL-60
[25] = system: SR
[26] = system: K562
[27] = system: NCI-H522
[28] = system: MOLT-4
[29] = system: SN12C
[30] = system: LXFL 529
[31] = system: NCI-H460
[32] = system: KM12
[33] = system: UACC-62
[34] = system: RXF 393
[35] = system: SNB-75
[36] = system: HOP-18
[37] = system: HOP-92
[38] = system: M14
[39] = system: SNB-78
[40] = system: SF-539
[41] = system: A498
[42] = system: HT-29
[43] = system: HOP-62
[44] = system: EKVX
[45] = system: UO-31
[46] = system: NCI-H226
[47] = system: SK-OV-3
[48] = system: SK-MEL-5
[49] = system: U-251
[50] = system: M19-MEL
[51] = system: COLO 205
[52] = system: SK-MEL-28
[53] = system: OVCAR-4
[54] = system: TK-10
[55] = system: DLD-1
[56] = system: CAKI-1
[57] = system: HCT-15
[58] = system: RPMI-8226
[59] = system: RXF 631

Measured: GI50

CCOC(=O)NN(C(=O)OCC)C(C(=O)c1ccc(Cl)cc1)=C1NCCN1
inactive: [1] > 100 µM | [2] > 100 µM | [3] > 100 µM | [4] > 100 µM | [5] > 100 µM | [6] > 100 µM | [7] > 100 µM | [8] > 100 µM | [9] > 100 µM | [10] > 100 µM | [11] > 100 µM | [12] > 100 µM | [13] > 100 µM | [14] > 100 µM | [15] > 100 µM | [16] > 100 µM | [17] > 100 µM | [18] > 100 µM | [19] > 100 µM | [20] > 100 µM | [21] > 100 µM | [22] 78.9 µM | [23] > 100 µM | [24] > 100 µM | [25] > 100 µM | [26] > 100 µM | [27] > 100 µM | [28] > 100 µM | [29] > 100 µM | [30] > 100 µM | [31] > 100 µM | [32] > 100 µM | [33] > 100 µM | [34] > 100 µM | [35] 52.4 µM | [36] > 100 µM | [37] > 100 µM | [38] > 100 µM | [39] > 100 µM | [40] > 100 µM | [41] > 100 µM | [42] > 100 µM | [43] > 100 µM | [44] > 100 µM | [45] > 100 µM | [46] > 100 µM | [47] > 100 µM | [48] > 100 µM | [49] > 100 µM | [50] > 100 µM | [51] > 100 µM | [52] > 100 µM | [53] > 100 µM | [54] > 100 µM | [55] > 100 µM | [56] > 100 µM

Cn1nc(-c2ccccc2)c(C(=O)/C=C/c2ccccc2)c(N2CCCCC2)c1=O
17.7 µM: [57]
inactive: [1] 42 µM | [2] 3.72 µM | [3] 12.5 µM | [4] 9.86 µM | [5] 46.1 µM | [6] > 100 µM | [11] 34 µM | [12] 10.4 µM | [14] 4.91 µM | [16] 37.7 µM | [18] 11.7 µM | [19] 23.7 µM | [20] 14 µM | [21] > 100 µM | [23] > 100 µM | [24] 2.72 µM | [26] 4.7 µM | [27] 7.05 µM | [28] 2.36 µM | [29] > 100 µM | [30] > 100 µM | [31] 7.67 µM | [33] 15.9 µM | [34] 12.8 µM | [58] 4.22 µM | [36] 40.8 µM | [37] 7.31 µM | [38] 47.6 µM | [40] 41.5 µM | [59] > 100 µM | [42] 11.7 µM | [43] 3.91 µM | [44] > 100 µM | [45] 17.5 µM | [47] > 100 µM | [48] 17.5 µM | [49] > 100 µM | [51] 9.98 µM | [52] 14.5 µM | [54] > 100 µM | [55] 9.35 µM | [56] 22.2 µM

O=C(O)C1C2CCC(O2)C1C(=O)N1CCCCC1 (stereo unspecified)
inactive: [1] 4.61 µM | [3] 4.16 µM | [4] 22.8 µM | [5] 4.54 µM | [6] 2 µM | [7] 1.93 µM | [8] 10.4 µM | [9] 26.5 µM | [10] 17.2 µM | [11] 3.43 µM | [12] 2.65 µM | [13] 8.17 µM | [14] 10.2 µM | [15] 4.11 µM | [16] 10.6 µM | [17] 10.6 µM | [18] 10.2 µM | [19] 13.2 µM | [20] 11.7 µM | [21] 15.5 µM | [23] 30.5 µM | [25] 3.68 µM | [27] 4.88 µM | [28] 5.06 µM | [29] 2.57 µM | [30] 5.02 µM | [31] 12.8 µM | [32] 16.2 µM | [33] 5.26 µM | [34] 2.2 µM | [35] 4.51 µM | [58] 3.26 µM | [36] 12.9 µM | [37] 2.38 µM | [38] 12.7 µM | [39] 16.7 µM | [40] 9.4 µM | [59] 17.4 µM | [41] 1.28 µM | [42] 4.07 µM | [43] 12.7 µM | [44] 4.02 µM | [45] 19.9 µM | [46] 5.09 µM | [47] 15.7 µM | [48] 13.8 µM | [49] 4.2 µM | [50] 9.1 µM | [51] 1.95 µM | [52] 5.83 µM | [53] 10.8 µM | [54] 2.99 µM | [55] 15.6 µM
12.1 µM: [57]

O=C(NC1C2CC3CC(C2)CC1C3)c1cc(/C=C/c2ccccc2)nc(S)n1 (stereo unspecified)
inactive: [1] > 100 µM | [2] > 100 µM | [4] > 100 µM | [5] > 100 µM | [6] > 100 µM | [7] > 100 µM | [8] > 100 µM | [9] > 100 µM | [10] > 100 µM | [11] > 100 µM | [12] > 100 µM | [13] > 100 µM | [14] > 100 µM | [15] > 100 µM | [16] > 100 µM | [17] > 100 µM | [18] > 100 µM | [19] > 100 µM | [20] > 100 µM | [21] > 100 µM | [22] > 100 µM | [23] > 100 µM | [24] > 100 µM | [25] > 100 µM | [26] > 100 µM | [27] > 100 µM | [28] > 100 µM | [30] > 100 µM | [31] > 100 µM | [32] > 100 µM | [33] > 100 µM | [34] > 100 µM | [35] > 100 µM | [58] > 100 µM | [38] > 100 µM | [39] > 100 µM | [40] > 100 µM | [59] > 100 µM | [41] > 100 µM | [43] > 100 µM | [44] > 100 µM | [45] > 100 µM | [47] > 100 µM | [48] > 100 µM | [49] > 100 µM | [50] > 100 µM | [51] > 100 µM | [52] > 100 µM | [53] > 100 µM | [54] > 100 µM | [55] > 100 µM | [56] > 100 µM

O=c1cnn2c(n1)sc1ccc3ccccc3c12
> 100 µM: [57]
inactive: [1] > 100 µM | [2] 63.5 µM | [3] > 100 µM | [4] 65.6 µM | [5] > 100 µM | [6] > 100 µM | [7] > 100 µM | [8] > 100 µM | [9] > 100 µM | [10] > 100 µM | [11] > 100 µM | [12] > 100 µM | [13] > 100 µM | [14] 87.9 µM | [15] > 100 µM | [16] > 100 µM | [17] > 100 µM | [18] 76.6 µM | [19] > 100 µM | [20] > 100 µM | [21] > 100 µM | [22] > 100 µM | [23] > 100 µM | [24] 83.9 µM | [25] 59.4 µM | [26] > 100 µM | [28] 30.1 µM | [29] > 100 µM | [30] > 100 µM | [31] 61.2 µM | [32] > 100 µM | [33] > 100 µM | [34] > 100 µM | [35] > 100 µM | [58] > 100 µM | [36] > 100 µM | [37] > 100 µM | [38] > 100 µM | [39] > 100 µM | [40] > 100 µM | [42] > 100 µM | [43] 98.9 µM | [44] 25.1 µM | [45] > 100 µM | [46] > 100 µM | [47] > 100 µM | [48] > 100 µM | [49] > 100 µM | [50] > 100 µM | [51] > 100 µM | [52] > 100 µM | [53] > 100 µM | [54] > 100 µM | [55] > 100 µM | [56] > 100 µM
